Target: T1, transthyretin tetramer (Homo sapiens, UniProt P02766)
T1 construct: from tissue; host or cells: human serum from three middle-aged and older persons
Experiment: Stabilization Test 1 of Transthyretin Tetramer (serum, urea denaturation, electrophoresis and Western blotting)
Format: biochemical
Conditions: glabridin alone added at concentrations up to 50 μM
Method: Serums were obtained from blood taken from three middle-aged and older persons. […] The resulting mixtures were incubated at 25° C. for 30 minutes, and then denatured with urea. Using these samples, the transthyretins (the tetramers, the dimers, and the monomers) in the serum were quantitated by electrophoresis and Western blotting. The stabilization effect was investigated using the ratio of the monomers (monomer) to the total amounts of the transthyretins (total) (monomer/total) and the ratio of the tetramers (tetramer) to the total amounts of the transthyretins (total) (tetramer/total). The analysis results of the monomer/total ratio are shown in the left of FIG. 1. The analysis results of the tetramer/total ratio are shown in the right of FIG. 1.

[1] = serum of three middle-aged and older persons, 25° C. 30 minutes, then denatured with urea

ratio of the monomers to the total amounts of the transthyretins (monomer/total) [1]: did not change
ratio of the tetramers to the total amounts of the transthyretins (tetramer/total) [1]: did not increase
stabilization effect for the transthyretin (serum): not observed
Structure (SMILES): CC1(C)C=Cc2c(ccc3c2OC[C@@H](c2ccc(O)cc2O)C3)O1 [glabridin]

Reference: US12629350B2, “Transthyretin tetramer stabilizing agent, and preventing agent or progression suppressing agent for transthyretin amyloidosis” (KANEKA CORPORATION, priority 2020, dated 2026)
